Measured values as given in paper PMC12503276, “A novel TRPV5/6-like channel from a scleractinian coral” (PLOS One, 2025).

Legend:
PdTRPV5/6-like = molecular target: T1, PdTRPV5/6-like (Pocillopora damicornis, UniProt Z9K305B7A5); test: outside-out patch clamp, HEK293; format: cell-based
T1 construct: full-length ORF, 724 residues, cloned from aquarium coral cDNA into pcDNA3.1, HEK293 transient expression; EGFP on separate plasmid; tetramer
T1 sequence (Z9K305B7A5 1-724): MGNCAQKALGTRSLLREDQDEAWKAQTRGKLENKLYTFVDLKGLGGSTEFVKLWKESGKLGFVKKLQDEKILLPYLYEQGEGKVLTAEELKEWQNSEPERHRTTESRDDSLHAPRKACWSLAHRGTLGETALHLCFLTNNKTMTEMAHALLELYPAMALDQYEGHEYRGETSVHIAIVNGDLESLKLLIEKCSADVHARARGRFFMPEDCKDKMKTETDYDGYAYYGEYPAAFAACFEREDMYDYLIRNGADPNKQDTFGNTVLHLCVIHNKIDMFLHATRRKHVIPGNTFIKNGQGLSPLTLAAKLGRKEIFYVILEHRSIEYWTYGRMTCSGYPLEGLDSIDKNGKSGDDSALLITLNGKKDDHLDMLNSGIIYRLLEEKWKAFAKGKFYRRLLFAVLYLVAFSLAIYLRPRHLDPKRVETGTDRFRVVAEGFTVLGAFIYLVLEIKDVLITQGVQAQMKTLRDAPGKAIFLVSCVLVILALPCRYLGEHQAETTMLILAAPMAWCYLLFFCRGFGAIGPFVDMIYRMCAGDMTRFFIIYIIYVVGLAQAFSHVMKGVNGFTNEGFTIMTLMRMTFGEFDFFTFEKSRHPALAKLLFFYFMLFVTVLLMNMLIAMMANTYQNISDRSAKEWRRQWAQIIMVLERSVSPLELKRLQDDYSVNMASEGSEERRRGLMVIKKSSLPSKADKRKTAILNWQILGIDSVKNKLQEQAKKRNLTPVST

hTRPV5 = molecular target: T2, hTRPV5 (Homo sapiens, UniProt Q9NQA5); test: outside-out patch clamp, HEK293; format: cell-based
T2 construct: gene TRPV5; EGFP on separate plasmid; tetramer
T2 sequence (Q9NQA5 whole entry): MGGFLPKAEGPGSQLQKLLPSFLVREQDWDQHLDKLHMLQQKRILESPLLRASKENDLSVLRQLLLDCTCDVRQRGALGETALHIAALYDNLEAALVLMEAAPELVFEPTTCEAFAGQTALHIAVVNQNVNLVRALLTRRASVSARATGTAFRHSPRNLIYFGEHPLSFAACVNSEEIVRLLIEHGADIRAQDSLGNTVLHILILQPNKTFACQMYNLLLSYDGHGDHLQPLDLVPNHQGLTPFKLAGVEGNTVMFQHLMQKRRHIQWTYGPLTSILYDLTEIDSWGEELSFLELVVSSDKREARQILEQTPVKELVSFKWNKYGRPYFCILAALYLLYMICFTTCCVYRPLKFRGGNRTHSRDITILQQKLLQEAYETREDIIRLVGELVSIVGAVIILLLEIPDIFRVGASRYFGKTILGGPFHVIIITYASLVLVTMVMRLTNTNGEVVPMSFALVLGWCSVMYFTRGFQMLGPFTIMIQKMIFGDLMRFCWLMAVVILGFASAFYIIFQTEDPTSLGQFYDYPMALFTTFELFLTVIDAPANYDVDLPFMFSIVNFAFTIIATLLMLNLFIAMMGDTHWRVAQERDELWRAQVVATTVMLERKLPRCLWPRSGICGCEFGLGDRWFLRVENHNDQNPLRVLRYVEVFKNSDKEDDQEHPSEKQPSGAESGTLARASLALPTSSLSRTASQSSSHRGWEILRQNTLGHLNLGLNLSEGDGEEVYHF

SMILES | IC50 (PdTRPV5/6-like) | IC50 (hTRPV5)
CC(C)[C@@H]1CC[C@@H](C)C[C@H]1O [(-)-menthol] | 120 µM | –
Clc1ccc(COC(Cn2ccnc2)c2ccc(Cl)cc2Cl)c(Cl)c1 (centres unmarked) [miconazole] | – | 0.0512 µM
